Measured values from ChEMBL document CHEMBL1201862, “PubChem BioAssay data set” (2004).
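Cells were grown in 96-well plates and exposed to each compound for 48 hours at five concentrations; endpoints were interpolated linearly between bracketing concentrations, or set to the highest concentration if not reached. GI50 is the concentration that inhibits growth by half.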 Calls of active or inactive are those of the source. Cut-off read from the data, not from the text of the source: active = GI50 up to about 1.1 µM and inactive = higher.

What was measured:
Assay in all cases: NCI-60 cell line screen, 48 h
SK-OV-3 = system: SK-OV-3
OVCAR-3 = system: OVCAR-3
HOP-92 = system: HOP-92
SF-295 = system: SF-295
786-0 = system: 786-0
SNB-19 = system: SNB-19
OVCAR-4 = system: OVCAR-4
NCI-H23 = system: NCI-H23
MDA-MB-435 = system: MDA-MB-435
DU-145 = system: DU-145
MDA-N = system: MDA-N
BT-549 = system: BT-549
MCF7 = system: MCF7
HOP-62 = system: HOP-62
HCC 2998 = system: HCC 2998
ACHN = system: ACHN
HT-29 = system: HT-29
A549 = system: A549
UACC-257 = system: UACC-257
TK-10 = system: TK-10
EKVX = system: EKVX
UACC-62 = system: UACC-62
HCT-116 = system: HCT-116
NCI-H522 = system: NCI-H522
UO-31 = system: UO-31
U-251 = system: U-251
SK-MEL-28 = system: SK-MEL-28
OVCAR-5 = system: OVCAR-5
PC-3 = system: PC-3
NCI-H460 = system: NCI-H460
SK-MEL-5 = system: SK-MEL-5
HCT-15 = system: HCT-15
SNB-75 = system: SNB-75
KM12 = system: KM12
COLO 205 = system: COLO 205
Malme-3M = system: Malme-3M
CAKI-1 = system: CAKI-1
MDA-MB-231 = system: MDA-MB-231
MOLT-4 = system: MOLT-4
OVCAR-8 = system: OVCAR-8
A498 = system: A498
RPMI-8226 = system: RPMI-8226
NCI/ADR-RES = system: NCI/ADR-RES
M14 = system: M14
K562 = system: K562
SK-MEL-2 = system: SK-MEL-2
SF-268 = system: SF-268
IGROV-1 = system: IGROV-1
RXF 393 = system: RXF 393
Hs-578T = system: Hs-578T

CCOP(=O)(Nc1ccc(-c2ccccc2)cc1)OCC
GI50 (SK-OV-3): > 100 µM (inactive)
GI50 (OVCAR-3): 49.9 µM (inactive)
GI50 (HOP-92): 24.8 µM (inactive)
GI50 (SF-295): > 100 µM (inactive)
GI50 (786-0): > 100 µM (inactive)
GI50 (SNB-19): > 100 µM (inactive)
GI50 (OVCAR-4): 96.4 µM (inactive)
GI50 (NCI-H23): > 100 µM (inactive)
GI50 (MDA-MB-435): 91.6 µM (inactive)
GI50 (DU-145): > 100 µM (inactive)
GI50 (MDA-N): 88.9 µM (inactive)
GI50 (BT-549): > 100 µM (inactive)
GI50 (MCF7): > 100 µM (inactive)
GI50 (HOP-62): > 100 µM (inactive)
GI50 (HCC 2998): > 100 µM (inactive)
GI50 (ACHN): > 100 µM (inactive)
GI50 (HT-29): 75.7 µM (inactive)
GI50 (A549): 81.5 µM (inactive)
GI50 (UACC-257): > 100 µM (inactive)
GI50 (TK-10): > 100 µM (inactive)
GI50 (EKVX): 65 µM (inactive)
GI50 (UACC-62): > 100 µM (inactive)
GI50 (HCT-116): > 100 µM (inactive)
GI50 (NCI-H522): 33.8 µM (inactive)
GI50 (UO-31): 57.9 µM (inactive)
GI50 (U-251): > 100 µM (inactive)
GI50 (SK-MEL-28): > 100 µM (inactive)
GI50 (OVCAR-5): 77.8 µM (inactive)
GI50 (PC-3): 86.5 µM (inactive)
GI50 (NCI-H460): > 100 µM (inactive)
GI50 (SK-MEL-5): 90.2 µM (inactive)
GI50 (HCT-15): > 100 µM
GI50 (SNB-75): 74.3 µM (inactive)
GI50 (KM12): > 100 µM (inactive)
GI50 (COLO 205): > 100 µM (inactive)
GI50 (Malme-3M): > 100 µM (inactive)
GI50 (CAKI-1): > 100 µM (inactive)
GI50 (MDA-MB-231): > 100 µM (inactive)
GI50 (MOLT-4): 36.4 µM (inactive)
GI50 (OVCAR-8): > 100 µM (inactive)
GI50 (A498): > 100 µM (inactive)
GI50 (RPMI-8226): 43.3 µM (inactive)
GI50 (NCI/ADR-RES): > 100 µM (inactive)
GI50 (M14): > 100 µM (inactive)
GI50 (K562): 74.1 µM (inactive)
GI50 (SK-MEL-2): > 100 µM (inactive)
GI50 (SF-268): 74.6 µM (inactive)
GI50 (IGROV-1): 71.3 µM (inactive)
GI50 (RXF 393): 34.6 µM (inactive)
GI50 (Hs-578T): > 100 µM (inactive)
